# Measurements published in patent US20170304195A1, “PHARMACEUTICAL FORMULATIONS FOR THE ORAL DELIVERY OF PEPTIDE OR PROTEIN DRUGS” (Cyprumed GmbH, priority 2014, published 2017).
# Read-outs that look alike come from different tables or passages of the source.
# How the values were obtained:
# [1] = rat, in vivo
# Method: (§1) Blood was taken from tail vessels at the time points 0, 10, 20, 40, 60, 90, 120 and 180 min after dosing.
# in vivo [2] = details: Sprague Dawley, rat, sc, 0.1 mg/kg
# Method: as §1
# in vivo [3] = details: Sprague Dawley, rat, sc
# Method: (§2) Teriparatide (PTH1-34) was dosed subcutaneously in volume of 1 ml/kg (final concentration 0.024 mg/ml teriparatide) to anaesthetized rats. […] Blood was taken from tail vessels at the time points 0, 10, 20, 40, 60, 90, 120 and 180 min after dosing. The teriparatide plasma concentrations were determined using commercial pTH (1-34) human ELISA kit (Biovendor, EU, cat. number RS-1163.0001).
# [4] = rat, in vivo; remark: listed apart in the source
# Method: as §2
# [5] = pH of dissolved solid powder mixtures (Example 17); format: physicochemical
# [6] = study comparing aprotinin with aminocaproic acid; cited from earlier work
molecule,measurement,setting,value
CCNC(=O)[C@@H]1CCCN1C(=O)[C@H](CCCNC(=N)N)NC(=O)[C@H](CC(C)C)NC(=O)[C@@H](CC(C)C)NC(=O)[C@H](Cc1ccc(O)cc1)NC(=O)[C@H](CO)NC(=O)[C@H](Cc1c[nH]c2ccccc12)NC(=O)[C@H](Cc1c[nH]cn1)NC(=O)[C@@H]1CCC(=O)N1 [Leuprolide],F,[1],100 ± 19.5%
same,AUC(0-t),in vivo [2],130 ng·h/mL
same,Cmax,in vivo [2],78.9 ± 14.7 ng/mL
same,Tmax,in vivo [2],20 to 40 min
"CC[C@H](C)[C@H](NC(=O)[C@H](CCC(=O)O)NC(=O)[C@H](CO)NC(=O)[C@@H](NC(=O)[C@@H](N)CO)C(C)C)C(=O)N[C@@H](CCC(N)=O)C(=O)N[C@@H](CC(C)C)C(=O)N[C@@H](CCSC)C(=O)N[C@@H](Cc1cnc[nH]1)C(=O)N[C@@H](CC(N)=O)C(=O)N[C@@H](CC(C)C)C(=O)NCC(=O)N[C@@H](CCCCN)C(=O)N[C@@H](Cc1cnc[nH]1)C(=O)N[C@@H](CC(C)C)C(=O)N[C@@H](CC(N)=O)C(=O)N[C@@H](CO)C(=O)N[C@@H](CCSC)C(=O)N[C@@H](CCC(=O)O)C(=O)N[C@@H](CCCN=C(N)N)C(=O)N[C@H](C(=O)N[C@@H](CCC(=O)O)C(=O)N[C@@H](Cc1c[nH]c2ccccc12)C(=O)N[C@@H](CC(C)C)C(=O)N[C@@H](CCCN=C(N)N)C(=O)N[C@@H](CCCCN)C(=O)N[C@@H](CCCCN)C(=O)N[C@@H](CC(C)C)C(=O)N[C@@H](CCC(N)=O)C(=O)N[C@@H](CC(=O)O)C(=O)N[C@H](C(=O)N[C@@H](Cc1cnc[nH]1)C(=O)N[C@@H](CC(N)=O)C(=O)N[C@@H](Cc1ccccc1)C(=O)O)C(C)C)C(C)C [PTH(1-34), Teriparatide]",Tmax,in vivo [3],10 min
same,half-life,in vivo [3],44 ± 8 min
same,F,[4],100 ± 23%
same,"plasma half-life of PTH(1-34) compared to s.c. administration, in words",[4],increased plasma half-life
same,Dissolution pH in 5 ml Aqua purificata,"[5]; CuSO4 10 mg, lauroyl carnitine 10 mg, MCC 50 mg, no buffer",3.6
same,Dissolution pH in 5 ml Aqua purificata,"[5]; CuSO4 10 mg, lauroyl carnitine 10 mg, gelatin capsule 50 mg, no buffer",4.4
same,Dissolution pH in 5 ml Aqua purificata,"[5]; CuSO4 10 mg, lauroyl carnitine 10 mg, lactose 50 mg, 10 mg TRIS",6.5
same,Dissolution pH in 5 ml Aqua purificata,"[5]; CuSO4 10 mg, lauroyl carnitine 10 mg, lactose 50 mg, buffer cell empty",3.2
same,Dissolution pH in 5 ml Aqua purificata,"[5]; CuSO4 10 mg, sucrose laurate 10 mg, lactose 50 mg, no buffer",5.0
same,Dissolution pH in 5 ml Aqua purificata,"[5]; ZnCl2 10 mg, lauroyl carnitine 10 mg, MCC 50 mg, 5 mg TRIS",6.3
same,Dissolution pH in 5 ml Aqua purificata,"[5]; ZnCl2 10 mg, lauroyl carnitine 10 mg, MCC 50 mg, no buffer",3.5
same,Dissolution pH in 5 ml Aqua purificata,"[5]; ZnCl2 10 mg, lauroyl carnitine 10 mg, gelatin capsule 50 mg, 10 mg TRIS",6.8
same,Dissolution pH in 5 ml Aqua purificata,"[5]; ZnCl2 10 mg, lauroyl carnitine 10 mg, gelatin capsule 50 mg, no buffer",4.3
same,Dissolution pH in 5 ml Aqua purificata,"[5]; ZnCl2 10 mg, lauroyl carnitine 10 mg, lactose 50 mg, 10 mg TRIS",7.1
same,Dissolution pH in 5 ml Aqua purificata,"[5]; ZnCl2 10 mg, lauroyl carnitine 10 mg, lactose 50 mg, buffer cell empty",2.9
same,Dissolution pH in 5 ml Aqua purificata,"[5]; ZnSO4 10 mg, lauroyl carnitine 10 mg, lactose 50 mg, 10 mg TRIS",7.5
same,Dissolution pH in 5 ml Aqua purificata,"[5]; ZnSO4 10 mg, lauroyl carnitine 10 mg, lactose 50 mg, no buffer",3.1
same,Dissolution pH in 5 ml Aqua purificata,"[5]; ZnSO4 10 mg, sucrose laurate 10 mg, lactose 50 mg, no buffer",6.5
Aprotinin,increase of mortality,[6],64%
